# Test system: GABA receptors
# Assay: GABA receptors in Xenopus oocytes (selectivity)
# Type: cell-based, rat
# Details: 20 μM
# Protocol: The numbers of oocytes recorded are in parentheses.
# The cDNA was linearized by restriction enzymes (Thermo Fisher Scientific, Lithuania), and the cRNA encoding the receptor subunits was synthesized from the linear template cDNA using the mMESSAGE mMACHINE kit (Invitrogen/Thermo Fisher Scientific, Lithuania). The α1β1δγ nAChR subunits were injected at a 1:1:1:1 ratio while α4 […] nAChR subunits were injected at a 1:1 ratio. The cDNAs encoding GABA and glycine subunits were provided by Dr. D. Weiss (University of Texas Health Science Center at San Antonio). The cDNAs encoding nAChR subunits were provided by Drs. R. Papke (University of Florida) and S. Heinemann (Salk Institute). The cDNA encoding the purinergic receptor was provided by Dr. R. Hume (University of Michigan).
# Responses in the presence of EU1180-438 were expressed as a percent of control calculated as the average of the responses before and after EU1180-438 exposure. […]
# Defolliculated Xenopus laevis oocytes (stage V-VI) were obtained from Ecocyte BioScience (Austin, Texas), or prepared from commercially available Xenopus ovaries (Xenopus 1, Dexter, MI) as previously described (Hansen, et al., Mol. Pharmacol., 2013). […] Recording electrodes were filled with 0.3-3.0 M KCl, and current responses were recorded at a holding potential of −40 mV.
structure (smiles),measurement,value
"COc1ccc(OCC(c2ccc(OC)cc2)N2Cc3ccccc3C2=O)cc1 (racemic) [EU1180-438, 2-(2-(4-methoxyphenoxy)-1-(4-methoxyphenyl)ethyl)isoindolin-1-one]",activity at GABA receptors,virtually no activity

# From US20230339854A1, “Negative Allosteric Modulation of GluN3-Containing N-Methyl-D-Aspartate Receptors” (Emory University, priority 2020, published 2023)
